What was measured:
IMD-0354 = compound: O=C(Nc1cc(C(F)(F)F)cc(C(F)(F)F)c1)c1cc(Cl)ccc1O [IMD-0354]; assay: relative viability (nuclei count vs DMSO), 5 days (fraction); higher = more cells survive
Outline: (§1)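 On vehicle-anchored 1536-well plates, lung cancer cell lines held overnight at 37 °C were pinned with five library-drug doses (not always all listed) spaced by √10. With no medium change over 5 days, they were then fixed, permeabilised and Hoechst-stained in one step and imaged at 4×. MetaXpress counted nuclei, and viability is the median across plates of treated-well over vehicle-well nuclei. Acceptance needed control CV below 25% and at least one doubling.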

CX-5461 = compound: Cc1cnc(CNC(=O)c2c(=O)c3ccc(N4CCCN(C)CC4)nc3n3c2sc2ccccc23)cn1 [CX-5461]; assay: as above
Outline: as §1

| Cell Line | relative viability (IMD-0354; 0.04 µM) | relative viability (IMD-0354; 0.1265 µM) | relative viability (IMD-0354; 0.4 µM) | relative viability (IMD-0354; 1.265 µM) | relative viability (IMD-0354; 4 µM) | relative viability (CX-5461; 0.01 µM) | relative viability (CX-5461; 0.03162 µM) | relative viability (CX-5461; 0.1 µM) | relative viability (CX-5461; 0.3162 µM) | relative viability (CX-5461; 1 µM) |
| --- | --- | --- | --- | --- | --- | --- | --- | --- | --- | --- |
| NCI-H2228 | 1.07 | 0.888 | 0.721 | 0.266 | 0.294 | 1.03 | 1.01 | 0.948 | 0.855 | 0.205 |
| NCI-H2342 | 1.03 | 1.05 | 0.764 | 0.633 | 0.476 | 0.997 | 1 | 0.834 | 1.04 | 0.889 |
| NCI-H2347 | 1.1 | 1.02 | 0.738 | 0.511 | 0.4 | 1.02 | 1.04 | 1.04 | 0.937 | 0.908 |
| NCI-H2405 | 1.08 | 1.09 | 0.7 | 0.278 | 0.332 | 1.03 | 0.995 | 1.01 | 0.897 | 0.864 |
| NCI-H3122 | 1.12 | 1.06 | 0.723 | 0.313 | 0.151 | 0.977 | 1.02 | 0.965 | 1.01 | 0.831 |
| PC-3 [JPC-3] | 1.06 | 1.03 | 0.829 | 0.341 | 0.306 | 1.03 | 1.05 | 1.11 | 1.01 | 0.974 |
| PC-14 | 1.18 | 1.05 | 0.52 | 0.317 | 0.129 | 1.08 | 1.04 | 0.956 | 1.01 | 0.599 |
| RERF-LC-KJ | 1.09 | 0.992 | 0.635 | 0.384 | 0.234 | 0.96 | 1.05 | 0.943 | 0.946 | 0.879 |
| SK-LU-1 | 1.16 | 0.97 | 0.581 | 0.488 | 0.277 | 1.08 | 1.07 | 1.04 | 1.07 | 0.736 |
| SK-MES-1 | 1.16 | 0.996 | 0.645 | 0.463 | 0.223 | 1.1 | 1.09 | 1.04 | 1.06 | 0.724 |
| SW 900 | 0.987 | 0.889 | 0.509 | 0.239 | 0.243 | 0.918 | 1.11 | 0.586 | 0.877 | 0.401 |
| SW 1573 | 1.15 | 0.916 | 0.548 | 0.22 | 0.13 | 0.94 | 0.978 | 0.689 | 0.656 | 0.33 |

Source: the supplement of paper PMC10307832
